The values that follow come from ChEMBL document CHEMBL1201862, “PubChem BioAssay data set” (2004).

Among the test systems are NCI-H23; CAKI-1; MDA-N; EKVX; NCI-H460; A549; OVCAR-8; U-251; UO-31; Hs-578T; DU-145; HCT-15; COLO 205; M14; UACC-62; SN12C; MDA-MB-231; MCF7; SK-OV-3.
Assay in all cases: growth of human tumour cells (NCI), 48 h

SMILES strings stand for the structures.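 How tested: cells in 96-well plates exposed to compound for 48 hours at five concentrations. Abbreviation: GI50, concentration required for 50% inhibition of growth.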 Calls of active or inactive are those of the source. Rule as the data show it: active = GI50 up to about 1.1 µM and inactive = higher. Where only a bound is given, the exact number is not on record here.

As for `CC(=O)ON(C(C)=O)c1ccc(-c2nc3ccccc3s2)cc1C`, the GI50 with NCI-H23 was 52.7 µM (inactive); in the test on CAKI-1, 10.4 µM (inactive); with MDA-N, 75.5 µM (inactive); in the test with EKVX, 2.77 µM (inactive); in the test with NCI-H460, 21.3 µM (inactive); in the test on A549, 28.7 µM (inactive). Moreover, the GI50 is 52.1 µM (inactive) in the test on OVCAR-8; 10.4 µM (inactive) in the test with U-251; 50.2 µM (inactive) in the test with UO-31; 37.8 µM (inactive) with Hs-578T; 37.7 µM (inactive) in the test on DU-145; 12.9 µM in the test on HCT-15. Moreover, the GI50 in the test with COLO 205 is 20.5 µM (inactive); with M14, 59 µM (inactive); with UACC-62, 44.3 µM (inactive); with SN12C, 31 µM (inactive); in the test with MDA-MB-231 it was 33.8 µM (inactive).
With `O=C1CCC2(c3ccccc3)Nc3ccncc3N12` (stereo not drawn), the GI50 in the test on MCF7, with NCI-H23, in the test on MDA-N, in the test on EKVX, with NCI-H460 and in the test on A549 was > 10 µM (inactive) in each case. In addition, the GI50 in the test on OVCAR-8 was > 10 µM (inactive); in the test with U-251, > 10 µM (inactive); in the test on UO-31, > 10 µM (inactive); with Hs-578T, > 10 µM (inactive); in the test with DU-145, > 10 µM (inactive); with SK-OV-3, 3.49 µM (inactive). The GI50 with HCT-15 was > 10 µM; in the test on M14, > 10 µM (inactive); in the test with UACC-62, > 10 µM (inactive); in the test with SN12C it was > 10 µM (inactive); in the test with MDA-MB-231, > 10 µM (inactive).
Regarding `CCCCOC(=O)C(=O)C(CCC(=O)c1ccc(C)cc1)C(=O)C=C(C)C` (stereo not drawn), the GI50 in the test with MCF7, with NCI-H23, in the test on CAKI-1, in the test with MDA-N, with EKVX and with NCI-H460 was > 100 µM (inactive) throughout. Moreover, the GI50 in the test with A549, in the test with OVCAR-8, in the test with U-251, in the test with UO-31, with Hs-578T and with SK-OV-3 was > 100 µM (inactive) in each case. For the same compound, the GI50 was > 100 µM in the test on HCT-15; > 100 µM (inactive) with M14; > 100 µM (inactive) in the test with UACC-62; > 100 µM (inactive) with SN12C; > 100 µM (inactive) in the test with MDA-MB-231.
Regarding `COc1ccc2c(c1)N=C1CSC(c3ccccc3Cl)N1C2` (stereo not drawn), the GI50 is 12.2 µM (inactive) in the test with MCF7; 17.9 µM (inactive) in the test on NCI-H23; 3.31 µM (inactive) with CAKI-1; 6.17 µM (inactive) in the test on MDA-N; 7.98 µM (inactive) in the test with EKVX; 3.12 µM (inactive) in the test with NCI-H460. The GI50 is 10.4 µM (inactive) in the test on A549; 16.1 µM (inactive) with OVCAR-8; 10.8 µM (inactive) in the test on U-251; 0.351 µM (active) in the test with UO-31; 45.2 µM (inactive) with Hs-578T; 15.1 µM (inactive) with SK-OV-3. The GI50 in the test on HCT-15 is 9.68 µM; with COLO 205 it was 14.9 µM (inactive); in the test on M14, 13 µM (inactive); with UACC-62, 4.08 µM (inactive); with SN12C, 11.1 µM (inactive); with MDA-MB-231, 27.4 µM (inactive).
In the case of `CC(=O)n1cc(OP(=O)(Oc2ccccc2)Oc2ccccc2)c2ccccc21`, the GI50 was 10.1 µM (inactive) in the test with MCF7; 33.3 µM (inactive) in the test on NCI-H23; 13.1 µM (inactive) in the test on CAKI-1; 27.6 µM (inactive) in the test with MDA-N; 22.6 µM (inactive) with NCI-H460; 32.4 µM (inactive) in the test on A549. The GI50 with OVCAR-8 was 39.7 µM (inactive); with U-251, 33.5 µM (inactive); with UO-31 it was 22.1 µM (inactive); with Hs-578T, 40.8 µM (inactive); with DU-145 it was 72.3 µM (inactive); in the test with HCT-15, 29 µM. Also, the GI50 with COLO 205 is 13.2 µM (inactive); in the test with M14, 18.9 µM (inactive); in the test on UACC-62 it was 16.9 µM (inactive); in the test on SN12C, 29.2 µM (inactive); in the test with MDA-MB-231 it was 24.8 µM (inactive).
In the case of `OCc1ccc2c(c1)CC1(Cc3ccccc3C1)C2`, the GI50 was 33 µM (inactive) with NCI-H23; 15.9 µM (inactive) in the test with CAKI-1; 4.86 µM (inactive) in the test with MDA-N; 26.1 µM (inactive) in the test with EKVX; 19.6 µM (inactive) in the test on NCI-H460; 20.6 µM (inactive) in the test with A549. Besides, the GI50 with OVCAR-8 is 21.2 µM (inactive); with UO-31 it was 11.8 µM (inactive); in the test with Hs-578T, 15.8 µM (inactive); with DU-145, 33.8 µM (inactive); in the test on SK-OV-3, 25.6 µM (inactive); in the test with HCT-15 it was 25.8 µM. Further, the GI50 is 15.6 µM (inactive) in the test with COLO 205, 20.1 µM (inactive) in the test with UACC-62, 17.4 µM (inactive) with SN12C and 10.1 µM (inactive) in the test with MDA-MB-231.
Consider `CC(C)N(/C(F)=N\C(=O)Nc1ccccc1C(F)(F)F)C(C)C`, for which the GI50 in the test on MCF7 was 35.6 µM (inactive); in the test on NCI-H23, 67 µM (inactive); with CAKI-1 it was 37.4 µM (inactive); in the test on MDA-N, 66.5 µM (inactive); with EKVX it was 31.8 µM (inactive); in the test with NCI-H460 it was 68.2 µM (inactive). Further, the GI50 in the test on A549 is 52.1 µM (inactive); with OVCAR-8, 58.1 µM (inactive); with U-251, 43.4 µM (inactive); in the test with UO-31, 45 µM (inactive); in the test on Hs-578T, 60.3 µM (inactive); in the test on SK-OV-3 it was 33.7 µM (inactive). In addition, the GI50 in the test with HCT-15 was 34.3 µM; in the test with COLO 205, 44.7 µM (inactive); with M14, 47.6 µM (inactive); in the test on UACC-62 it was > 10 µM (inactive); in the test on SN12C, 37.2 µM (inactive); in the test on MDA-MB-231, 47.3 µM (inactive).
Consider `CCn1nc(-c2ccccc2)c2c1N(C)c1ccccc1-n1c(-c3ccccc3)nnc1-2`, for which the GI50 with MCF7 is 5.45 µM (inactive); with NCI-H23, 14 µM (inactive); in the test with MDA-N, 15.1 µM (inactive); in the test on NCI-H460 it was 14.3 µM (inactive); in the test on A549, 13.3 µM (inactive); in the test on OVCAR-8 it was 20.9 µM (inactive). Also, the GI50 with U-251 was 15 µM (inactive); in the test on UO-31 it was 14.2 µM (inactive); with Hs-578T it was 19 µM (inactive); with DU-145 it was 16.1 µM (inactive); with SK-OV-3 it was 18.9 µM (inactive); with HCT-15, 10.4 µM. For the same compound, the GI50 in the test with COLO 205 is 19.7 µM (inactive); with M14, 16 µM (inactive); in the test on UACC-62 it was 12.8 µM (inactive); with SN12C, 16.4 µM (inactive); with MDA-MB-231 it was 13.4 µM (inactive).
Take `COc1ccc(-n2c(C)nc3ccc(NC4OC(CO)C(O)C(O)C4O)cc3c2=O)cc1` (stereo not drawn): the GI50 in the test on MCF7, with NCI-H23, with CAKI-1, with MDA-N, in the test with EKVX and in the test on NCI-H460 was > 100 µM (inactive) each time. Besides, the GI50 in the test on OVCAR-8 was > 100 µM (inactive); in the test with U-251, > 100 µM (inactive); in the test with UO-31 it was > 100 µM (inactive); with Hs-578T it was > 100 µM (inactive); in the test with DU-145, > 100 µM (inactive); in the test on HCT-15 it was > 100 µM. Moreover, the GI50 in the test with COLO 205, in the test with UACC-62, with SN12C and in the test on MDA-MB-231 was > 100 µM (inactive) throughout.
